Earlier results as cited in US4639511A, “Des-19-leucine-calcitonin analogs” (Armour Pharmaceutical Company, priority 1985, dated 1987).
Positions of bridges follow the written chain, without caps; N, C: chain ends. No end group written: not given here.

Columns and labels:
[1] = tested on: serum calcium concentration; settings: standard used in the rat assay
[2] = literature values, Monikawa et al.

Substance	potency of the standard salmon calcitonin, independently determined [1]	hypocalcemic potency [2]
salmon calcitonin [standard salmon calcitonin]	greater than 4,000 IU/mg	
eel calcitonin (CSNLSTCVLGKLSQELHKLQTYPRTDVGAGTP-NH2; disulfide 1-7; ends not checked; UniProt P01262 1-32, looked up) [synthetic eel calcitonin, synthetic eel calcitonin from Monikawa et al]		around 4300 IU/mg.
(1,7-α-L-aminosuberic acid)eel calcitonin		about 3400 IU/mg.
